Data published in ChEMBL document CHEMBL4699440, “Comprehensive review on the anti-bacterial activity of 1,2,3-triazole hybrids” (Eur J Med Chem, 2019).
Converted amounts (≈) assume the structure as drawn. Numbered stars: 1 amine (or outer) side, 2 acyl side, 3 side chain; on linkers, the order of the positions; unused ones are H or OH. Square brackets hold non-standard residues; d marks the D form. Peptide text beside a SMILES is read from it. * marks the point of attachment. X1 = CC(C)(C(=O)c1ccc(C(F)(F)F)cc1)C(=O)*; βPro(3R) = O=C([C@@H]1CCN([*:1])C1)[*:2]; Phe(ol) = N[C@H](CO)Cc1ccccc1; Aib = CC(C)(N)C(=O)O

Tests used:
KB = assay: Cytotoxicity against human KB cells; format: cell-based; conditions: Homo sapiens, KB
Staphylococcus aureus [1] = assay: Antibacterial activity against Staphylococcus aureus; format: functional
Bacillus cereus = assay: Antibacterial activity against Bacillus cereus; format: functional
Candida albicans = assay: Antifungal activity against Candida albicans ATCC 2091 incubated for 24 hrs by broth microdilution method; format: functional
Pseudomonas aeruginosa [2] = assay: Antibacterial activity against Pseudomonas aeruginosa ATCC 25619 incubated for 24 hrs by broth microdilution method; format: functional
Bacillus subtilis [3] = assay: Antibacterial activity against Bacillus subtilis ATCC 6051 incubated for 24 hrs by broth microdilution method; format: functional
Escherichia coli [4] = assay: Antibacterial activity against Escherichia coli ATCC 25922 incubated for 24 hrs by broth microdilution method; format: functional
Aspergillus niger = assay: Antibacterial activity against Aspergillus niger ATCC 9029 incubated for 24 hrs by broth microdilution method; format: functional
Staphylococcus aureus [5] = assay: Antibacterial activity against Staphylococcus aureus ATCC 12598 incubated for 24 hrs by broth microdilution method; format: functional
Staphylococcus aureus [6] = assay: Antibacterial activity against Staphylococcus aureus assessed as inhibition zone at 1 mg/ml measured after overnight incubation by disc diffusion method; format: functional; conditions: read-out: IZ
Bacillus subtilis [7] = assay: Antibacterial activity against Bacillus subtilis assessed as inhibition zone at 1 mg/ml measured after overnight incubation by disc diffusion method; format: functional; conditions: read-out: IZ
Pseudomonas aeruginosa [8] = assay: Antibacterial activity against Pseudomonas aeruginosa assessed as inhibition zone at 1 mg/ml measured after overnight incubation by disc diffusion method; format: functional; conditions: read-out: IZ
Escherichia coli [9] = assay: Antibacterial activity against Escherichia coli assessed as inhibition zone at 1 mg/ml measured after overnight incubation by disc diffusion method; format: functional; conditions: read-out: IZ

Compound	MIC (Staphylococcus aureus [1])	MIC (Bacillus cereus)	MIC (Candida albicans)	MIC (Pseudomonas aeruginosa [2])	MIC (Bacillus subtilis [3])	MIC (Escherichia coli [4])	MIC (Aspergillus niger)	MIC (Staphylococcus aureus [5])	IC50 (KB)	zone of inhibition at 1000 µg/mL (Staphylococcus aureus [6])	zone of inhibition at 1000 µg/mL (Bacillus subtilis [7])	zone of inhibition at 1000 µg/mL (Pseudomonas aeruginosa [8])	zone of inhibition at 1000 µg/mL (Escherichia coli [9])
CC(C)C[C@H](NC(=O)CNC(=O)C(C)(C)NC(=O)[C@@H](NC(=O)C(C)(C)NC(=O)[C@H](CCC(N)=O)NC(=O)[C@H](C)NC(=O)C(C)(C)NC(=O)[C@H](C)NC(=O)C(C)(C)NC(=O)[C@@H]1CCN(C(=O)C(C)(C)n2cc(-c3ccc(F)c(F)c3)nn2)C1)C(C)C)C(=O)NC(C)(C)C(=O)N1CCC[C@@H]1C(=O)N[C@H](C(=O)NC(C)(C)C(=O)NC(C)(C)C(=O)N[C@@H](CCC(N)=O)C(=O)N[C@@H](CCC(N)=O)C(=O)N[C@H](CO)Cc1ccccc1)C(C)C	1.56 µg/mL (≈ 0.748 µM)	1.56 µg/mL (≈ 0.748 µM)	–	–	–	–	–	–	2.9 µg/mL (≈ 1.39 µM)	–	–	–	–
Clc1ccc(-n2cc(CNc3ccccc3-c3nnc(-c4ccccc4)o3)nn2)cc1	–	–	–	–	–	–	–	–	–	2.5 mm	2.5 mm	2.5 mm	2.5 mm
COc1ccc(-n2cc(CNc3ccccc3-c3nnc(-c4ccccc4)o3)nn2)c([N+](=O)[O-])c1	–	–	–	–	–	–	–	–	–	2.5 mm	2.5 mm	2.5 mm	2.5 mm
N#Cc1c(N)nnn1Cc1cc(=O)oc2ccc3c(c12)OCO3	–	–	0.2 µg/mL (≈ 0.643 µM)	25 µg/mL (≈ 80.3 µM)	25 µg/mL (≈ 80.3 µM)	0.2 µg/mL (≈ 0.643 µM)	0.2 µg/mL (≈ 0.643 µM)	0.2 µg/mL (≈ 0.643 µM)	–	–	–	–	–
Clc1cccc(-n2cc(CNc3ccccc3-c3nnc(-c4ccccc4)o3)nn2)c1	–	–	–	–	–	–	–	–	–	2.5 mm	2.5 mm	2.5 mm	2.5 mm
O=[N+]([O-])c1cccc(-n2cc(CNc3ccccc3-c3nnc(-c4ccccc4)o3)nn2)c1	–	–	–	–	–	–	–	–	–	2.5 mm	2.5 mm	2.5 mm	2.5 mm
N#Cc1c(N)nnn1Cc1cc(=O)oc2c3c(ccc12)OCO3	–	–	0.2 µg/mL (≈ 0.643 µM)	25 µg/mL (≈ 80.3 µM)	25 µg/mL (≈ 80.3 µM)	0.2 µg/mL (≈ 0.643 µM)	0.2 µg/mL (≈ 0.643 µM)	0.2 µg/mL (≈ 0.643 µM)	–	–	–	–	–
c1ccc(-c2nnc(-c3ccccc3NCc3cn(-c4ccccc4-c4ccc(-c5nnco5)cc4)nn3)o2)cc1	–	–	–	–	–	–	–	–	–	2.5 mm	2.5 mm	2.5 mm	2.5 mm
c1ccc(-c2nnc(-c3ccccc3NCc3cn(-c4ccccc4)nn3)o2)cc1	–	–	–	–	–	–	–	–	–	2.5 mm	2.5 mm	2.5 mm	2.5 mm
CC1COc2c(N3CCN(C)CC3)c(F)cc3c(=O)c(C(=O)O)cn1c23 (configuration not stated) [OFLOXACIN]	–	–	–	–	–	–	–	–	–	2.5 mm	2.5 mm	2.5 mm	2.5 mm
c1ccc(-c2nnc(-c3ccccc3NCc3cn(C4CCCCC4)nn3)o2)cc1	–	–	–	–	–	–	–	–	–	2.5 mm	2.5 mm	2.5 mm	2.5 mm
Fc1ccccc1-n1cc(CNc2ccccc2-c2nnc(-c3ccccc3)o2)nn1	–	–	–	–	–	–	–	–	–	2.5 mm	2.5 mm	2.5 mm	2.5 mm
COc1ccccc1-n1cc(CNc2ccccc2-c2nnc(-c3ccccc3)o2)nn1	–	–	–	–	–	–	–	–	–	2.5 mm	2.5 mm	2.5 mm	2.5 mm
Cc1ccc(-n2cc(CNc3ccccc3-c3nnc(-c4ccccc4)o3)nn2)cc1	–	–	–	–	–	–	–	–	–	2.5 mm	2.5 mm	2.5 mm	2.5 mm
CC(C)C[C@H](NC(=O)CNC(=O)C(C)(C)NC(=O)[C@@H](NC(=O)C(C)(C)NC(=O)[C@H](CCC(N)=O)NC(=O)[C@H](C)NC(=O)C(C)(C)NC(=O)[C@H](C)NC(=O)C(C)(C)NC(=O)[C@@H]1CCN(C(=O)C(C)(C)C(=O)c2ccc(C(F)(F)F)cc2)C1)C(C)C)C(=O)NC(C)(C)C(=O)N1CCC[C@H]1C(=O)N[C@H](C(=O)NC(C)(C)C(=O)NC(C)(C)C(=O)N[C@@H](CCC(N)=O)C(=O)N[C@@H](CCC(N)=O)C(=O)N[C@H](CO)Cc1ccccc1)C(C)C (X1-[βPro(3R)][Aib]A[Aib]AQ[Aib]V[Aib]GL[Aib]PV[Aib][Aib]QQ[Phe(ol)])	1.56 µg/mL (≈ 0.751 µM)	12.5 µg/mL (≈ 6.01 µM)	–	–	–	–	–	–	–	–	–	–	–
Cc1ccccc1-n1cc(CNc2ccccc2-c2nnc(-c3ccccc3)o2)nn1	–	–	–	–	–	–	–	–	–	2.5 mm	2.5 mm	2.5 mm	2.5 mm
c1ccc(Cn2cc(CNc3ccccc3-c3nnc(-c4ccccc4)o3)nn2)cc1	–	–	–	–	–	–	–	–	–	2.5 mm	2.5 mm	2.5 mm	2.5 mm

Second part, led by results:

MIC (Staphylococcus aureus [1])	MIC (Bacillus cereus)	MIC (Candida albicans)	MIC (Pseudomonas aeruginosa [2])	MIC (Bacillus subtilis [3])	MIC (Escherichia coli [4])	MIC (Aspergillus niger)	MIC (Staphylococcus aureus [5])	Compound	IC50 (KB)	zone of inhibition at 1000 µg/mL (Staphylococcus aureus [6])	zone of inhibition at 1000 µg/mL (Bacillus subtilis [7])	zone of inhibition at 1000 µg/mL (Pseudomonas aeruginosa [8])	zone of inhibition at 1000 µg/mL (Escherichia coli [9])
–	–	0.2 µg/mL (≈ 0.611 µM)	25 µg/mL (≈ 76.4 µM)	25 µg/mL (≈ 76.4 µM)	0.4 µg/mL (≈ 1.22 µM)	0.2 µg/mL (≈ 0.611 µM)	0.2 µg/mL (≈ 0.611 µM)	CCOC(=O)c1c(C)nnn1Cc1cc(=O)oc2ccc(C)cc12	–	–	–	–	–
–	–	0.2 µg/mL (≈ 0.607 µM)	25 µg/mL (≈ 75.9 µM)	25 µg/mL (≈ 75.9 µM)	0.2 µg/mL (≈ 0.607 µM)	0.2 µg/mL (≈ 0.607 µM)	0.2 µg/mL (≈ 0.607 µM)	Cc1nnn(Cc2cc(=O)oc3c4c(ccc23)OCO4)c1C(=O)O	–	–	–	–	–
–	–	0.2 µg/mL (≈ 0.56 µM)	25 µg/mL (≈ 70 µM)	25 µg/mL (≈ 70 µM)	0.2 µg/mL (≈ 0.56 µM)	0.2 µg/mL (≈ 0.56 µM)	0.2 µg/mL (≈ 0.56 µM)	CCOC(=O)c1c(C)nnn1Cc1cc(=O)oc2c3c(ccc12)OCO3	–	–	–	–	–
–	–	0.2 µg/mL (≈ 0.634 µM)	25 µg/mL (≈ 79.3 µM)	25 µg/mL (≈ 79.3 µM)	0.2 µg/mL (≈ 0.634 µM)	0.2 µg/mL (≈ 0.634 µM)	0.2 µg/mL (≈ 0.634 µM)	COc1ccc2oc(=O)cc(Cn3nnc(C)c3C(=O)O)c2c1	–	–	–	–	–
–	–	0.2 µg/mL (≈ 0.607 µM)	25 µg/mL (≈ 75.9 µM)	25 µg/mL (≈ 75.9 µM)	0.2 µg/mL (≈ 0.607 µM)	0.2 µg/mL (≈ 0.607 µM)	0.2 µg/mL (≈ 0.607 µM)	Cc1nnn(Cc2cc(=O)oc3ccc4c(c23)OCO4)c1C(=O)O	–	–	–	–	–
–	–	0.2 µg/mL (≈ 0.56 µM)	25 µg/mL (≈ 70 µM)	25 µg/mL (≈ 70 µM)	0.2 µg/mL (≈ 0.56 µM)	0.2 µg/mL (≈ 0.56 µM)	0.2 µg/mL (≈ 0.56 µM)	CCOC(=O)c1c(C)nnn1Cc1cc(=O)oc2ccc3c(c12)OCO3	–	–	–	–	–
–	–	0.2 µg/mL (≈ 0.668 µM)	25 µg/mL (≈ 83.5 µM)	25 µg/mL (≈ 83.5 µM)	0.4 µg/mL (≈ 1.34 µM)	0.2 µg/mL (≈ 0.668 µM)	0.2 µg/mL (≈ 0.668 µM)	Cc1ccc2oc(=O)cc(Cn3nnc(C)c3C(=O)O)c2c1	–	–	–	–	–
–	–	0.2 µg/mL (≈ 0.711 µM)	25 µg/mL (≈ 88.9 µM)	25 µg/mL (≈ 88.9 µM)	0.4 µg/mL (≈ 1.42 µM)	0.2 µg/mL (≈ 0.711 µM)	1.6 µg/mL (≈ 5.69 µM)	Cc1ccc2oc(=O)cc(Cn3nnc(N)c3C#N)c2c1	–	–	–	–	–
–	–	0.2 µg/mL (≈ 0.611 µM)	25 µg/mL (≈ 76.4 µM)	25 µg/mL (≈ 76.4 µM)	0.2 µg/mL (≈ 0.611 µM)	0.2 µg/mL (≈ 0.611 µM)	0.2 µg/mL (≈ 0.611 µM)	CCOC(=O)c1c(C)nnn1Cc1cc(=O)oc2cc(C)ccc12	–	–	–	–	–
–	–	0.2 µg/mL (≈ 0.583 µM)	25 µg/mL (≈ 72.8 µM)	25 µg/mL (≈ 72.8 µM)	0.2 µg/mL (≈ 0.583 µM)	0.2 µg/mL (≈ 0.583 µM)	0.2 µg/mL (≈ 0.583 µM)	CCOC(=O)c1c(C)nnn1Cc1cc(=O)oc2ccc(OC)cc12	–	–	–	–	–
–	–	0.2 µg/mL (≈ 0.711 µM)	25 µg/mL (≈ 88.9 µM)	25 µg/mL (≈ 88.9 µM)	0.2 µg/mL (≈ 0.711 µM)	0.2 µg/mL (≈ 0.711 µM)	0.2 µg/mL (≈ 0.711 µM)	Cc1ccc2c(Cn3nnc(N)c3C#N)cc(=O)oc2c1	–	–	–	–	–
–	–	0.2 µg/mL (≈ 0.673 µM)	25 µg/mL (≈ 84.1 µM)	25 µg/mL (≈ 84.1 µM)	0.2 µg/mL (≈ 0.673 µM)	0.2 µg/mL (≈ 0.673 µM)	0.2 µg/mL (≈ 0.673 µM)	COc1ccc2oc(=O)cc(Cn3nnc(N)c3C#N)c2c1	–	–	–	–	–
–	–	0.2 µg/mL (≈ 0.668 µM)	25 µg/mL (≈ 83.5 µM)	25 µg/mL (≈ 83.5 µM)	0.2 µg/mL (≈ 0.668 µM)	0.2 µg/mL (≈ 0.668 µM)	0.2 µg/mL (≈ 0.668 µM)	Cc1ccc2c(Cn3nnc(C)c3C(=O)O)cc(=O)oc2c1	–	–	–	–	–
